Results as given in patent US10111875B2, “Pyrrolopyrimidine compounds and uses thereof” (HUTCHISON MEDIPHARMA LIMITED, priority 2010, dated 2018).

target: Recombinant human JAK1 catalytic domain (Homo sapiens (Human), UniProt P23458); assay: JAK1 kinase assay (Z'-LYTE Tyr 6 Peptide); format: biochemical; conditions: JAK1 kinase assay, 0.3 uM concentration; read-out: inhibition percentage (IR %)
Method: JAK1/2/3 kinase assay are performed in vitro using Kit-Tyr 6 Peptide (Invitrogen, Cat. No. PV4122). TYK2 kinase assay are performed in vitro using Z′-LYTE™ Kinase Assay Kit-Tyr 3 Peptide (Invitrogen, Cat. No. PV3192). […] All compounds are initially tested at 8 different concentrations (1 μM down to 0.0003 μM) using a 1:3 serial dilution scheme.

Chain of Recombinant human JAK1 catalytic domain (P23458 875-1153): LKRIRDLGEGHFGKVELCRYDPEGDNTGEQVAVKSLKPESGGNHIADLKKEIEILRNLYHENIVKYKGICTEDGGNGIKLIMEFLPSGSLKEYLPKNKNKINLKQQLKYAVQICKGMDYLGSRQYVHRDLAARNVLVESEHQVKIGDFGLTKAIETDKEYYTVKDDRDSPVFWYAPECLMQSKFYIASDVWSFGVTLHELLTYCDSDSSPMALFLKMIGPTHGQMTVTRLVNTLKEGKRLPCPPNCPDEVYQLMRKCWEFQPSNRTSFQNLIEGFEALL

| SMILES | inhibition at 0.3 µM |
| --- | --- |
| CN(c1ccc(C#N)cc1[N+](=O)[O-])[C@@H]1CCN(c2ncnc3[nH]ccc23)C1 [Compound 107] | 50 to 100% |
| CN(c1ccc(C(=O)N[C@@H](CO)c2ccccc2)cc1Cl)[C@@H]1CCN(c2ncnc3[nH]ccc23)C1 [Compound 205] | 50 to 100% |
| CN(c1ncc(C#N)cc1Br)[C@@H]1CCN(c2ncnc3[nH]ccc23)C1 [Compound 99] | 50 to 100% |
| C#CCN(c1c(F)cc(C#N)cc1F)[C@@H]1CCN(c2ncnc3[nH]ccc23)C1 [Compound 129] | 50 to 100% |
| CN(c1ncc(Br)cc1C#N)[C@@H]1CCN(c2ncnc3[nH]ccc23)C1 [Compound 89] | 50 to 100% |
| CN(c1cnc(-c2ccn[nH]2)cn1)[C@@H]1CCN(c2ncnc3[nH]ccc23)C1 [Compound 152] | 50 to 100% |
| CN([C@@H]1CCN(c2ncnc3[nH]ccc23)C1)S(=O)(=O)C1CC1 [Compound 57] | 20 to 50% |
| CN(c1ccc(C(=O)Nc2cccc(F)c2)cn1)[C@@H]1CCN(c2ncnc3[nH]ccc23)C1 [Compound 177] | 50 to 100% |
| CN(C(=O)CCc1c(Cl)cccc1Cl)[C@@H]1CCN(c2ncnc3[nH]ccc23)C1 [Compound 21] | 50 to 100% |
| CN(c1ccc(S(=O)(=O)NC[C@@H]2CCCO2)cn1)[C@@H]1CCN(c2ncnc3[nH]ccc23)C1 [Compound 257] | 20 to 50% |
| CN(c1ccc(S(=O)(=O)NCc2ccc(F)cc2)cn1)[C@@H]1CCN(c2ncnc3[nH]ccc23)C1 [Compound 254] | 50 to 100% |
| COCCNS(=O)(=O)c1ccc(N(C)[C@@H]2CCN(c3ncnc4[nH]ccc34)C2)nc1 [Compound 237] | 50 to 100% |
| N#CCN(C1CC1)[C@@H]1CCN(c2ncnc3[nH]ccc23)C1 [Compound 55] | 50 to 100% |
| CN(C)CCNS(=O)(=O)c1ccc(N(C)[C@@H]2CCN(c3ncnc4[nH]ccc34)C2)nc1 [Compound 248] | 50 to 100% |
| CN(c1ccc(C#N)cn1)[C@@H]1CCN(c2ncnc3[nH]ccc23)C1 [Compound 71] | 50 to 100% |
| CN(c1ccc([N+](=O)[O-])cn1)[C@@H]1CCN(c2ncnc3[nH]ccc23)C1 [Compound 70] | 50 to 100% |
| Cc1nc(N(C)[C@@H]2CCN(c3ncnc4[nH]ccc34)C2)ccc1C#N [Compound 155] | 50 to 100% |
| Cc1cc(N(C)[C@@H]2CCN(c3ncnc4[nH]ccc34)C2)nc(Cl)c1C#N [Compound 72] | 50 to 100% |
| CN(c1ccc(F)cn1)[C@@H]1CCN(c2ncnc3[nH]ccc23)C1 [Compound 66] | 20 to 50% |
| CN(c1cccc(C#N)c1)[C@@H]1CCN(c2ncnc3[nH]ccc23)C1 [Compound 119, (R)-3-((1-(7H-pyrrolo[2,3-d]pyrimidin-4-yl)pyrrolidin-3-yl)(methyl)amino)benzonitrile] | 50 to 100% |

| SMILES | inhibition at 0.3 µM |
| --- | --- |
| CN(c1ccc(C(=O)Nc2ccc(Cl)cc2)cn1)[C@@H]1CCN(c2ncnc3[nH]ccc23)C1 [Compound 193] | 20 to 50% |
| CN(C(=O)C1(C#N)CC1)[C@@H]1CCN(c2ncnc3[nH]ccc23)C1 [Compound 6] | 50 to 100% |
| COCC(=O)N(C)[C@@H]1CCN(c2ncnc3[nH]ccc23)C1 [Compound 4] | 20 to 50% |
| C#CCN(c1cnc(C#N)cn1)[C@@H]1CCN(c2ncnc3[nH]ccc23)C1 [Compound 127] | 50 to 100% |
| CN(c1ccc(S(=O)(=O)NC2CCOCC2)cn1)[C@@H]1CCN(c2ncnc3[nH]ccc23)C1 [Compound 259] | 50 to 100% |
| CN(c1ncnc2ccccc12)[C@@H]1CCN(c2ncnc3[nH]ccc23)C1 [Compound 80] | 50 to 100% |
| CN(c1ccnc(C#N)c1)[C@@H]1CCN(c2ncnc3[nH]ccc23)C1 [Compound 121] | 50 to 100% |
| CN(c1ccc(C(F)(F)F)nn1)[C@@H]1CCN(c2ncnc3[nH]ccc23)C1 [Compound 62] | 50 to 100% |
| CN(c1ccc(C#N)nc1)[C@@H]1CCN(c2ncnc3[nH]ccc23)C1 [Compound 76] | 20 to 50% |
| C#CCN(C1CCOC1)[C@@H]1CCN(c2ncnc3[nH]ccc23)C1 (stereo partly drawn) [Compound 56] | 50 to 100% |
| CCOc1cnc(N(C)[C@@H]2CCN(c3ncnc4[nH]ccc34)C2)cn1 [Compound 136] | 50 to 100% |
| CN(c1ccc(NS(=O)(=O)c2cccs2)cn1)[C@@H]1CCN(c2ncnc3[nH]ccc23)C1 [Compound 214] | 50 to 100% |
| CN(c1ccc(NS(=O)(=O)Cc2ccc(Cl)cc2)cn1)[C@@H]1CCN(c2ncnc3[nH]ccc23)C1 [Compound 225] | 50 to 100% |
| CN(c1ccc(C(=O)N[C@@H](CO)c2ccccc2)cc1F)[C@@H]1CCN(c2ncnc3[nH]ccc23)C1 [Compound 179] | 50 to 100% |
| CN(C(=O)N1CCC[C@@H]1C#N)[C@@H]1CCN(c2ncnc3[nH]ccc23)C1 [Compound 38] | 50 to 100% |
| N#Cc1ccc(N(CC2CC2)[C@@H]2CCN(c3ncnc4[nH]ccc34)C2)nc1 [Compound 124] | 50 to 100% |
| CN(C(=O)CC1CC1)[C@@H]1CCN(c2ncnc3[nH]ccc23)C1 [Compound 19] | 20 to 50% |
| C#CCN(C1CCCC1)[C@@H]1CCN(c2ncnc3[nH]ccc23)C1 [Compound 39, (R)—N-cyclopentyl-N-(prop-2-ynyl)-1-(7H-pyrrolo[2,3-d]pyrimidin-4-yl)pyrrolidin-3-amine] | 20 to 50% |
| COc1nc(N(C)[C@@H]2CCN(c3ncnc4[nH]ccc34)C2)ccc1C#N [Compound 42] | 50 to 100% |
| COC(=O)c1ccc(N(C)[C@@H]2CCN(c3ncnc4[nH]ccc34)C2)nc1 [Compound 168] | 50 to 100% |

Further lines, results first:

| inhibition at 0.3 µM | SMILES |
| --- | --- |
| 20 to 50% | CN(c1ccc(S(C)(=O)=O)cc1)[C@@H]1CCN(c2ncnc3[nH]ccc23)C1 [Compound 120, (R)—N-methyl-N-(4-(methylsulfonyl)phenyl)-1-(7H-pyrrolo[2,3-d]pyrimidin-4-yl)pyrrolidin-3-amine] |
| 50 to 100% | CN(C(=O)Cc1ccc(C#N)cc1)[C@@H]1CCN(c2ncnc3[nH]ccc23)C1 [Compound 20] |
| 50 to 100% | CN(C)S(=O)(=O)N(C)[C@@H]1CCN(c2ncnc3[nH]ccc23)C1 [Compound 14] |
| 50 to 100% | CN(c1nc(Cl)c(C#N)cc1F)[C@@H]1CCN(c2ncnc3[nH]ccc23)C1 [Compound 87] |
| 50 to 100% | CN(c1ccc(S(=O)(=O)NC(C)(C)C)cn1)[C@@H]1CCN(c2ncnc3[nH]ccc23)C1 [Compound 238] |
| 20 to 50% | CN(c1ccc(C(=O)NC[C@H](O)c2ccccc2)cc1Cl)[C@@H]1CCN(c2ncnc3[nH]ccc23)C1 [Compound 189] |
| 50 to 100% | CN(c1ccc(C#N)c2ccccc12)[C@@H]1CCN(c2ncnc3[nH]ccc23)C1 [Compound 111] |
| 50 to 100% | CN(c1ncccc1C#N)[C@@H]1CCN(c2ncnc3[nH]ccc23)C1 [Compound 159] |
| 20 to 50% | N#Cc1cnc2c(c1)[nH]c(=O)n2[C@@H]1CCN(c2ncnc3[nH]ccc23)C1 [Compound 165, (R)-3-(1-(7H-pyrrolo[2,3-d]pyrimidin-4-yl)pyrrolidin-3-yl)-2-oxo-2,3-dihydro-1H-imidazo[4,5-b]pyridine-6-carbonitrile] |
| 50 to 100% | CN(c1cnc(C#N)cn1)[C@@H]1CCN(c2ncnc3[nH]ccc23)C1 [Compound 84] |
| 50 to 100% | CN(c1ccc(C#N)cn1)[C@H]1CCN(c2ncnc3[nH]ccc23)C1 [Compound 102] |
| 50 to 100% | C[C@H](NS(=O)(=O)c1ccc(N(C)[C@@H]2CCN(c3ncnc4[nH]ccc34)C2)nc1)c1ccc(F)cc1 [Compound 256] |
| 20 to 50% | CN(c1ccc(C#N)cc1C(F)(F)F)[C@@H]1CCN(c2ncnc3[nH]ccc23)C1 [Compound 109] |
| 20 to 50% | C#CCN(C)[C@@H]1CCN(c2ncnc3[nH]ccc23)C1 [Compound 65] |
| 50 to 100% | CN(c1ccc(C#N)cc1Cl)[C@@H]1CCN(c2ncnc3[nH]ccc23)C1 [Compound 112] |
| 50 to 100% | CN(c1ccccn1)[C@@H]1CCN(c2ncnc3[nH]ccc23)C1 [Compound 156] |
| 50 to 100% | CC(C)[C@H](CO)NC(=O)c1ccc(N(C)[C@@H]2CCN(c3ncnc4[nH]ccc34)C2)c(F)c1 [Compound 180] |
| 20 to 50% | Cc1cc([N+](=O)[O-])cnc1N(C)[C@@H]1CCN(c2ncnc3[nH]ccc23)C1 [Compound 75] |
| 20 to 50% | CN(c1ccc(S(=O)(=O)NC2c3ccccc3C[C@H]2O)cn1)[C@@H]1CCN(c2ncnc3[nH]ccc23)C1 (stereo partly drawn) [Compound 232] |
| 20 to 50% | CN(c1ccc(C#N)cc1N)[C@@H]1CCN(c2ncnc3[nH]ccc23)C1 [Compound 166, (R)-4-((1-(7H-pyrrolo[2,3-d]pyrimidin-4-yl)pyrrolidin-3-yl)(methyl)amino)-3-aminobenzonitrile] |
| 50 to 100% | CN(CCC#N)[C@@H]1CCN(c2ncnc3[nH]ccc23)C1 [Compound 64] |
| 50 to 100% | CN(c1cnc(NCC2CC2)cn1)[C@@H]1CCN(c2ncnc3[nH]ccc23)C1 [Compound 138] |
| 50 to 100% | CN(c1ccc(C(=O)NC2CC2)cn1)[C@@H]1CCN(c2ncnc3[nH]ccc23)C1 [Compound 171, (R)-6-((1-(7H-pyrrolo[2,3-d]pyrimidin-4-yl)pyrrolidin-3-yl)(methyl)amino)-N-cyclopropylnicotinamide] |

same assay, conditions: read-out: inhibition percentage (IR %)

| SMILES | inhibition at 0.3 µM |
| --- | --- |
| CN(c1cc(Cl)c(C#N)cc1F)[C@@H]1CCN(c2ncnc3[nH]ccc23)C1 [Compound 110] | 20 to 50% |
| CN(c1ccc(C#N)c(Cl)c1)[C@@H]1CCN(c2ncnc3[nH]ccc23)C1 [Compound 116] | 20 to 50% |
| CN(c1ccc(NCc2ccc(F)cc2)cn1)[C@@H]1CCN(c2ncnc3[nH]ccc23)C1 [Compound 230, (R)—N^5-(4-fluorobenzyl)-N^2-(1-(7H-pyrrolo[2,3-d]pyrimidin-4-yl)pyrrolidin-3-yl)-N^2-methylpyridine-2,5-diamine] | 50 to 100% |
